# Patent publication US9365522B2, “Pyrazole amide derivative” (AMGEN INC., priority 2015, dated 2016)
# Target: T1, ligand binding domain of human ROR gamma (Homo sapiens, UniProt P51449)
# T1 construct: NM_001001523; expressed in transfected cells; host or cells: HEK293T
# T1 sequence (P51449 247-497 isoform P51449-2): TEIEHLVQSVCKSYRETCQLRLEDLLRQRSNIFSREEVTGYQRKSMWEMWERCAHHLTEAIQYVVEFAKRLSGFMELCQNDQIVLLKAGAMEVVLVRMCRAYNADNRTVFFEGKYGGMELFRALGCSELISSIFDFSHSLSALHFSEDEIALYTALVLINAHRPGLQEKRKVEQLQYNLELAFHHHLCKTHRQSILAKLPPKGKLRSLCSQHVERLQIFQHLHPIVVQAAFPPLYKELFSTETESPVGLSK
# Assay: ROR gamma reporter gene assay (GAL4-RORγ LBD luciferase, Dual-Glo)
# Assay type: cell-based
# Details: HEK293T cells transfected with pM-ROR gamma, 8 concentrations 3.5 nM to 10.5 μM, 24 h incubation; read-out: result (pIC50, inhibition of RORγ transcriptional activity) (converted)
# In short: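 Inhibition of RORγ-driven transcription was measured in HEK293T cells expressing a GAL4 fusion of the human RORγ LBD (aa 247-497), with renilla luciferase as internal control. Cells in 10% charcoal-stripped serum received compound (3.5 nM–10.5 μM) for 24 h.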
row,Structure (SMILES),IC50 [pM]
1,"CC(=O)N1CC(N(CC(=O)c2c(Cl)cncc2Cl)C(=O)c2cnn([C@H]3CC[C@H](C(=O)O)CC3)c2C(F)(F)F)C1 [Example 172, trans-4-(4-((1-acetylazetidin-3-yl)-(2-(3,5-dichloropyridin-4-yl)-2-oxoethyl)carbamoyl)-5-(trifluoromethyl)pyrazol-1-yl)cyclohexane-1-carboxylic acid]",> 1e+07
2,"C[C@]1(C(=O)O)CC[C@H](n2ncc(C(=O)N(CC(=O)c3c(Cl)cccc3C(F)(F)F)CC3CC4(CC4)C3)c2C(F)(F)F)CC1 [Example 235, trans-4-(4-((2-(2-chloro-6-(trifluoromethyl)phenyl)-2-oxoethyl)-(spiro[2.3]hexan-5-ylmethyl)carbamoyl)-5-(trifluoromethyl)pyrazol-1-yl)-1-methylcyclohexane-1-carboxylic acid]",13200
3,"O=C(CN(Cc1cc(F)cc(F)c1)C(=O)c1cnn([C@H]2CC[C@H](C(=O)NO)CC2)c1C(F)(F)F)c1c(Cl)cncc1Cl [Example 5, N-(2-(3,5-dichloropyridin-4-yl)-2-oxoethyl)-N-(3,5-difluorobenzyl)-1-(trans-4-(hydroxycarbamoyl)cyclohexyl)-5-(trifluoromethyl)-1H-pyrazole-4-carboxamide]",209000
4,"C[C@]1(C(=O)O)CC[C@H](n2ncc(C(=O)N(CC(=O)c3c(Cl)cc(Cl)cc3Cl)CC3(F)CCCC3)c2C(F)(F)F)CC1 [Example 225, trans-4-(4-((1-fluorocyclopentyl)methyl-(2-oxo-2-(2,4,6-trichlorophenyl)ethyl)carbamoyl)-5-(trifluoromethyl)pyrazol-1-yl)-1-methylcyclohexane-1-carboxylic acid]",2950
5,"CC(C)(C)C#CCN(CC(=O)c1c(Cl)cccc1C(F)(F)F)C(=O)c1cnn([C@H]2CC[C@](C)(C(=O)O)CC2)c1C(F)(F)F [Example 217, trans-4-(4-((2-(2-chloro-6-(trifluoromethyl)phenyl)-2-oxoethyl)-(4,4-dimethylpent-2-ynyl)carbamoyl)-5-(trifluoromethyl)pyrazol-1-yl)-1-methylcyclohexane-1-carboxylic acid]",219000
6,"O=C(CN(CC1(F)CCCC1)C(=O)c1cnn(C23CCC(C(=O)O)(CC2)CC3)c1C(F)(F)F)c1c(Cl)cc(F)cc1Cl [Example 271, 4-(4-((2-(2,6-dichloro-4-fluorophenyl)-2-oxoethyl)-((1-fluorocyclopentyl)methyl)carbamoyl)-5-(trifluoromethyl)pyrazol-1-yl)bicyclo[2.2.2]octane-1-carboxylic acid]",5130
7,"NC(=O)[C@H]1CC[C@H](n2ncc(C(=O)N(CC(=O)c3c(Cl)cncc3Cl)Cc3ccc(F)cc3)c2C(F)(F)F)CC1 [Example 88, l-(trans-4-carbamoylcyclohexyl)-N-(2-(3,5-dichloropyridin-4-yl)-2-oxoethyl)-N-(4-fluorobenzyl)-5-(trifluoromethyl)-1H-pyrazole-4-carboxamide]",87100
8,"O=C(CN(Cc1ccc(F)cc1)C(=O)c1cnn([C@H]2CC[C@H](C(=O)O)CC2)c1C(F)(F)F)c1c(Cl)cc[nH]c1=O [Example 195, trans-4-(4-((2-(4-chloro-2-oxo-1H-pyridin-3-yl)-2-oxoethyl)-((4-fluorophenyl)methyl)carbamoyl)-5-(trifluoromethyl)pyrazol-1-yl)cyclohexane-1-carboxylic acid]",> 1e+07
9,"CCC(C)(C)CN(CC(=O)c1c(Cl)cc(Cl)cc1Cl)C(=O)c1cnn(C23CCC(C(=O)O)(CC2)CC3)c1C(F)(F)F [Example 308, 4-(4-(2,2-dimethylbutyl-(2-oxo-2-(2,4,6-trichlorophenyl)ethyl)carbamoyl)-5-(trifluoromethyl)pyrazol-1-yl)bicyclo[2.2.2]octane-1-carboxylic acid]",16600
10,"CC(C)(C)c1c(C(=O)N(CC(=O)c2c(Cl)cncc2Cl)Cc2cc(F)cc(F)c2)cnn1[C@H]1CC[C@H](C(=O)O)CC1 [Example 148, trans-4-(5-tert-butyl-4-((2-(3,5-dichloropyridin-4-yl)-2-oxoethyl)-((3,5-difluorophenyl)methyl)carbamoyl)pyrazol-1-yl)cyclohexane-1-carboxylic acid]",479000
11,"CC12CCC(CN(CC(=O)c3c(Cl)cc(F)cc3Cl)C(=O)c3cnn([C@H]4CC[C@](C)(C(=O)O)CC4)c3C(F)(F)F)(CC1)O2 [Example 244, trans-4-(4-((2-(2,6-dichloro-4-fluorophenyl)-2-oxoethyl)-((1-methyl-7-oxabicyclo[2.2.1]heptan-4-yl)methyl)carbamoyl)-5-(trifluoromethyl)pyrazol-1-yl)-1-methylcyclohexane-1-carboxylic acid]",6920
12,"O=C(O)C1CCC(n2ncc(C(=O)N(CCc3c(Cl)cncc3Cl)Cc3ccc(F)cc3)c2C(F)(F)F)CC1 (stereo not shown) [Example 24, 4-(4-((2-(3,5-dichloropyridin-4-yl)ethyl)(4-fluorobenzyl)carbamoyl)-5-(trifluoromethyl)-1H-pyrazol-1-yl)cyclohexanecarboxylic acid]",166000
13,"N#Cc1cc(Cl)c(C(=O)CN(Cc2cc(F)cc(F)c2)C(=O)c2cnn([C@H]3CC[C@H](C(=O)O)CC3)c2C(F)(F)F)c(Cl)c1 [Example 58, trans-4-(4-((2-(2,6-dichloro-4-cyanophenyl)-2-oxoethyl)(3,5-difluorobenzyl)carbamoyl)-5-(trifluorornethyl)-1H-pyrazol-1-yl)cyclohexanecarboxylic acid]",135000
14,"Cc1cc(Cl)c(C(=O)CN(Cc2cc(F)cc(F)c2)C(=O)c2cnn([C@H]3CC[C@H](C(=O)O)CC3)c2C(F)(F)F)c(Cl)c1 [Example 137, trans-4-(4-((2-(2,6-dichloro-4-methylphenyl)-2-oxoethyl)-((3,5-difluorophenyl)methyl)carbamoyl)-5-(trifluoromethyl)pyrazol-1-yl)cyclohexane-1-carboxylic acid]",4790
15,"O=C(CN(Cc1ncc(Cl)s1)C(=O)c1cnn([C@H]2CC[C@H](C(=O)O)CC2)c1C(F)(F)F)c1c(Cl)cncc1Cl [Example 168, trans-4-(4-((5-chloro-1,3-thiazol-2-yl)methyl-(2-(3,5-dichloropyridin-4-yl)-2-oxoethyl)carbamoyl)-5-(trifluoromethyl)pyrazol-1-yl)cyclohexane-1-carboxylic acid]",148000

# The next lines start with the values.
row,IC50 [pM],Structure (SMILES)
1,537000,"COc1ccccc1[C@@H](O)CN(C(=O)c1cnn([C@H]2CC[C@](C)(C(=O)O)CC2)c1C(F)(F)F)[C@H]1C[C@@H]2[C@H](C1)C2(C)C [Example 370, trans-4-(4-(((1R,3r,5S)-6,6-dimethylbicyclo[3.1.0]hexan-3-yl)(2-hydroxy-2-(2-methoxyphenyl)ethyl)carbamoyl)-5-(trifluoromethyl)-1H-pyrazoH-yl)-1-methylcyclohexanecarboxylic acid]"
2,87100,"CC1(C)[C@@H]2C[C@H](N(CC(O)c3c(Cl)cccc3OC(F)F)C(=O)c3cnn([C@H]4CC[C@](C)(C(=O)O)CC4)c3C(F)(F)F)C[C@@H]21 (stereo partly drawn) [Example 399, trans-4-(4-((2-(2-chloro-6-(difluoromethoxy)phenyl)-2-hydroxyethyl)((1R,3r,5S)-6,6-dimethylbicyclo[3.1.0]hexan-3-yl)carbamoyl)-5-(trifluoromethyl)-1H-pyrazol-1-yl)-1-methylcyclohexanecarboxylic acid]"
3,676000,"CC1(C)[C@@H]2C[C@H](N(CC(=O)c3ncccc3Cl)C(=O)c3cnn([C@H]4CC[C@](C)(C(=O)O)CC4)c3C(F)(F)F)C[C@@H]21 [Example 398, trans-4-(4-((2-(3-chloropyridin-2-yl)-2-oxoethyl)((1R,3r,5S}-6,6-dimethylbicyclo[3.1.0]hexan-3-yl)carbamoyl)-5-(trifluoromethyl)-1H -pyrazol-1-yl)-1-methylcyclohexanecarboxylic acid]"
4,380000,"C[C@]1(C(=O)O)CC[C@H](n2ncc(C(=O)N(CC(=O)c3c(Cl)cncc3Cl)CC3(O)CCCC3)c2C(F)(F)F)CC1 [Example 324, trans-4-(4-((2-(3,5-dichloropyridin-4-yl)-2-oxoethyl)-((1-hydroxycyclopentyl)methyl)carbamoyl)-5-(trifluoromethyl)pyrazol-1-yl)-1-methylcyclohexane-1-carboxylic acid]"
5,83200,"CC1(C)CCC(N(CC(=O)c2c(Cl)cc(F)cc2Cl)C(=O)c2cnn([C@H]3C[C@](C)(C(=O)O)C3)c2C(F)(F)F)CC1 [Example 339, trans-3-(4-((2-(2,6-dichloro-4-fluorophenyl)-2-oxoethyl)-(4,4-dimethylcyclohexyl)carbamoyl)-5-(trifluoromethyl)pyrazol-1-yl)-1-methylcyclobutane-1-carboxylic acid]"
6,3.39e+06,"CC1(C)[C@@H]2C[C@H](N(C[C@@H](O)c3ccccc3C(F)(F)F)C(=O)c3cnn([C@H]4CC[C@](C)(C(=O)O)CC4)c3C(F)(F)F)C[C@@H]21 [Example 373, trans-4-(4-(((1R,3r,5S)-6,6-dimethylbicyclo[3.1.0]hexan-3-yl)(2-hydroxy-2-(2-(trifluoromethyl)phenyl)ethyl)carbamoyl)-5-(trifluoromethyl)-1H-pyrazol-1-yl)-1-methylcyclohexanecarboxylic acid]"
7,13200,"CC1(C)[C@@H]2C[C@H](N(CC(=O)c3c(Cl)cccc3Cl)C(=O)c3cnn([C@H]4CC[C@](C)(C(=O)O)CC4)c3Cl)C[C@@H]21 [Example 363, trans-4-(5-chloro-4-((2-(2,6-dichlorophenyl)-2-oxoethyl)((1R,3r,5S)-6,6-dimethylbicyclo[3.1.0]hexan-3-yl)carbamoyl)-1H-pyrazol-yl)-1-methylcyclohexanecarboxylic acid]"
